Experimental data from patent publication US11400107B2, “Cancer treatments” (NuCana plc, priority 2016, dated 2022).
“Also recorded” adds a separate entry of the source.

System: Lin^−/CD34^+/CD38^−/CD123^+ cancer stem cells in KG1a cells
Assay: Immunophenotypic quantification of the leukaemic stem cell compartment in KG1a cells
Type: cell-based, human
Details: KG1a cells
Procedure: The respective abilities of NUC-1031 and gemcitabine to target CSCs were investigated in the AML cell line KG1a.
KG1a cells were cultured for 72 hours in the presence of a wide range of concentrations of each nucleoside analogue and their respective ProTides. Cells were then harvested and labelled with a cocktail of anti-lineage antibodies (PE-cy7), anti-CD34 (FITC), anti-CD38 (PE) and anti-CD123 (PERCP cy5). The sub-population expressing a leukaemic stem cell (LSC) phenotype were subsequently identified and were expressed as a percentage of all viable cells left in the culture. The percentages of stem cells remaining were then plotted on a dose-response graph and the proportion of cancer stem cells was compared across the various concentrations of ProTides and their respective parent compounds, in order to determine if they preferentially target cancer stem cells.
The data obtained in these experiments were evaluated using one way ANOVA. All data was confirmed as Gaussian or a Gaussian approximation using the omnibus K2 test. LD50 values were calculated from the non-linear regression and line of best-fit analysis of the sigmoidal dose-response curves. All statistical analyses were performed using Graphpad Prism 6.0 software (Graphpad Software Inc., San Diego, Calif.).

For `C[C@H](NP(=O)(OC[C@H]1O[C@@H](n2ccc(N)nc2=O)C(F)(F)[C@@H]1O)Oc1ccccc1)C(=O)OCc1ccccc1` (stereo partly drawn) [NUC-1031, 2′-deoxy-2′,2′-difluoro-D-cytidine-5′-O-[phenyl (benzoxy-L-alaninyl)] phosphate], the “selectivity against cancer stem cells compared to the parent compound” value was “preferential targeting of CSCs; also recorded: statistically significantly greater”.
